Test results: patent US20240116985A1, “STAPLED PEPTIDES AND METHODS THEREOF” (priority 2020, published 2024)
Read-outs that look alike come from different tables or passages of the source.

Assays:
[1] = biological target: T1, full-length beta-Catenin (Uniprot ID P35222) (Homo sapiens, UniProt P35222); assay: Fluorescence polarization IC50 (beta-catenin / 5FAM-TCF4 10-53 competition); format: binding
T1 construct: 10 nM full-length beta-Catenin (Uniprot ID P35222)
T1 sequence (P35222 1-781): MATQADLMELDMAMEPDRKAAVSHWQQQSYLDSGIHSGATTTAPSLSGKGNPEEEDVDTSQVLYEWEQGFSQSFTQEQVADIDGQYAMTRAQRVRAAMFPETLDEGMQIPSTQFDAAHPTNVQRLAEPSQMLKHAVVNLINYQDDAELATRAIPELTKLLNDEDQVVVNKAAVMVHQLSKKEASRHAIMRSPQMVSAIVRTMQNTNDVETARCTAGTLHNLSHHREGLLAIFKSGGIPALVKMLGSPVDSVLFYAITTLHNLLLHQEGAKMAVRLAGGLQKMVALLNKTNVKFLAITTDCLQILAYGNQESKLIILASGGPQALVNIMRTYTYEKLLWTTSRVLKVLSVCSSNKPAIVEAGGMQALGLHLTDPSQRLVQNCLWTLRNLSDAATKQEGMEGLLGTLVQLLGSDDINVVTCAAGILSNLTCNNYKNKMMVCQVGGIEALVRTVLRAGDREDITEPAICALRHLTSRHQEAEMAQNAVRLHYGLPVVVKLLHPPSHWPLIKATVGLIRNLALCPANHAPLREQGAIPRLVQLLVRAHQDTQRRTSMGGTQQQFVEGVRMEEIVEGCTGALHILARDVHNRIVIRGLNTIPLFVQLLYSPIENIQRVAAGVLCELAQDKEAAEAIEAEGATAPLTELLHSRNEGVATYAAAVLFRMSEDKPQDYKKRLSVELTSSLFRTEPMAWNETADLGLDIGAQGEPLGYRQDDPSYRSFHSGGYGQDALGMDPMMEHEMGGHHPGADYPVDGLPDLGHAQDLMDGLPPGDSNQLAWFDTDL

[2] = biological target: T2, beta-catenin/TCF4 engagement (Homo sapiens, UniProt P35222); assay: Nano-BRET target engagement assay (B-cat-Halo & TCF4-Luc in HEK293 cells); format: cell-based; conditions: for IC50: read-out: NanoBRET Abs IC50
T2 construct: expressed in transfected cells; host or cells: HEK293
T2 sequence (P35222 1-781): T1 sequence (P35222 1-781)

CHI Log D procedure = format: physicochemical; conditions: for CHI Log D: pH 7.4

Row | SMILES | IC50 ([1]; read-out: FP EC50) [nM] | IC50 ([1]; read-out: beta-Catenin FP IC50) [nM] | IC50 [2] [nM] | CHI Log D (CHI Log D procedure) | IC50 ([2]; Abs IC50) [nM] | inhibition at 10 µM ([2]; HEK293, 10 uM, read-out: NanoBRET % inh @ 10 uM) [%] | chromatographic logD (CHI Log D procedure; pH 7.4, CHI Log D)
1 | CC(=O)N1CCC[C@]12CC=CCCCC1(CCCC=CCCCCOC(=O)N3CC[C@@](C(=O)N[C@@H](Cc4ccsc4)C(=O)N[C@@H](Cc4csc5ccccc45)C(=O)N[C@@H](CCC(N)=O)C(N)=O)(C3)NC(=O)[C@H](CC(N)=O)NC(=O)[C@H](Cc3ccccc3)NC(=O)[C@H](C)NC(=O)[C@H](C)NC(=O)[C@H](CC(=O)O)NC(=O)[C@H](CC(=O)O)NC1=O)NC(=O)[C@H](CC(C)(C)C)NC(=O)[C@H](CC(=O)O)NC2=O (stereo partly drawn) [I-768, Ac-PL3-Asp-Npg-B5-Asp-Asp-Ala-Ala-Phe-Asn-PyrS3-3Thi-BztA-Gln-NH2] | 9 | 9 | 31400 | 2.043 |  |  | 
2 | CC(=O)N1CCC[C@]12CC=CCCCC1(CCCC=CCCCOC(=O)N3CC[C@@](C(=O)N[C@@H](Cc4ccsc4)C(=O)N[C@@H](Cc4csc5ccccc45)C(=O)N[C@@H](Cc4c[nH]cn4)C(N)=O)(C3)NC(=O)[C@H](CC(N)=O)NC(=O)[C@H](Cc3ccccc3)NC(=O)[C@H](C)NC(=O)[C@H](C)NC(=O)[C@H](CN(CC(=O)O)CC(F)(F)F)NC(=O)[C@H](CC(=O)O)NC1=O)NC(=O)[C@H](CC(C)(C)C)NC(=O)[C@H](CC(=O)O)NC2=O (stereo partly drawn) [I-769, Ac-PL3-Asp-Npg-B5-Asp-TfeGA-Ala-Ala-Phe-Asn-PyrS2-3Thi-BztA-His-NH2] |  | 5 | 13000 | 2.307 | 13000 |  | 
3 | CC(=O)N1CCC[C@]12CC=CCCCC1(CCCC=CCCCOC(=O)N3CC[C@@](C(=O)N[C@@H](Cc4ccsc4)C(=O)N[C@@H](Cc4csc5ccccc45)C(=O)N[C@@H](Cc4c[nH]cn4)C(N)=O)(C3)NC(=O)[C@H](CC(N)=O)NC(=O)[C@H](Cc3ccccc3)NC(=O)[C@H](C)NC(=O)[C@H](C)NC(=O)[C@H](CN(CC(=O)O)CC(F)(F)F)NC(=O)[C@H](CC(=O)O)NC1=O)NC(=O)[C@H](CC(C)(C)C)NC(=O)[C@H](CC(=O)O)NC2=O (stereo partly drawn) [I-770, Ac-PL3-Asp-Npg-B5-Asp-TfeGA-Ala-Ala-Phe-Asn-PyrS2-3Thi-BztA-His-NH2] |  | 5 | 13700 | 2.358 | 13700 |  | 

The remaining lines, values ahead:

Row | IC50 ([1]; read-out: FP EC50) [nM] | IC50 ([1]; read-out: beta-Catenin FP IC50) [nM] | IC50 [2] [nM] | CHI Log D (CHI Log D procedure) | IC50 ([2]; Abs IC50) [nM] | inhibition at 10 µM ([2]; HEK293, 10 uM, read-out: NanoBRET % inh @ 10 uM) [%] | chromatographic logD (CHI Log D procedure; pH 7.4, CHI Log D) | SMILES
4 |  | 5 | 37300 | 2.031 |  |  |  | CC(=O)N1CCC[C@]12CC=CCCCC1(CCCC=CCCCOC(=O)N3CC[C@@](C(=O)N[C@@H](Cc4ccsc4)C(=O)N[C@@H](Cc4csc5ccccc45)C(=O)N[C@@H](Cc4c[nH]cn4)C(N)=O)(C3)NC(=O)[C@H](CCC(N)=O)NC(=O)[C@H](Cc3ccccc3)NC(=O)[C@H](C)NC(=O)[C@H](C)NC(=O)[C@H](CC(=O)O)NC(=O)[C@H](CC(=O)O)NC1=O)NC(=O)[C@H](CC(C)(C)C)NC(=O)[C@H](CC(=O)O)NC2=O (stereo partly drawn) [I-771, Ac-PL3-Asp-Npg-B5-Asp-Asp-Ala-Ala-Phe-Gln-PyrS2-3Thi-BztA-His-NH2]
5 | 7 | 7 | > 20000 | 2.069 |  |  |  | CC(=O)N1CCC[C@]12CC=CCCCC1(CCCC=CCCCOC(=O)N3CC[C@@](C(=O)N[C@@H](Cc4ccsc4)C(=O)N[C@@H](Cc4csc5ccccc45)C(=O)N[C@@H](Cc4c[nH]cn4)C(N)=O)(C3)NC(=O)[C@H](CCC(N)=O)NC(=O)[C@H](Cc3ccccc3)NC(=O)[C@H](C)NC(=O)[C@H](C)NC(=O)[C@H](CC(=O)O)NC(=O)[C@H](CC(=O)O)NC1=O)NC(=O)[C@H](CC(C)(C)C)NC(=O)[C@H](CC(=O)O)NC2=O (stereo partly drawn) [I-772, Ac-PL3-Asp-Npg-B5-Asp-Asp-Ala-Ala-Phe-Gln-PyrS2-3Thi-BztA-His-NH2]
6 |  | 92 |  |  |  | 0.9 | 2.06 | CC(=O)N1CCC[C@]12CC=CCCCC1(CCCC=CCCCOC(=O)N3CC[C@@](C(=O)N[C@@H](Cc4ccsc4)C(=O)N[C@@H](Cc4cn(C)c5ccccc45)C(=O)N[C@@H](Cc4c[nH]cn4)C(N)=O)(C3)NC(=O)[C@H](CC(N)=O)NC(=O)[C@H](Cc3ccccc3)NC(=O)[C@H](C)NC(=O)[C@H](C)NC(=O)[C@H](CC(=O)O)NC(=O)[C@H](CC(=O)O)NC1=O)NC(=O)[C@H](CC(C)(C)C)NC(=O)[C@H](CC(=O)O)NC2=O (stereo partly drawn) [I-799, Ac-PL3-Asp-Npg-B5-Asp-Asp-Ala-Ala-Phe-Asn-PyrS2-3Thi-1MeW-His-NH2]
